According to paper PMC4352194, “Physicochemical and Biological Properties of Oxovanadium(IV), Cobalt(II) and Nickel(II) Complexes with Oxydiacetate Anions” (Biological Trace Element Research, 2014):
Where two headings read alike, the source gives them in different places.

Legend:
Format in all cases: cell-based
[1] = tested on: Human Dermal Fibroblasts adult (HDFa) cell line; assay: Cytotoxicity assay (MTT); settings: for viability of the cells / cytotoxic effect / LC50 / CC50: HDFa, MTT; for viability of the cells: 500 μM; for cytotoxic effect: 1–500 μM; for CC50: read-out: LC50 (the source's name)
Description: The Human Dermal Fibroblasts adult (HDFa) cell line (Cascade Biologics) was used in all experiments. Unless otherwise specified, cells were grown in the Dulbecco’s modified Eagle’s medium (DMEM) supplemented with 10 % fetal bovine serum (FBS) and 1× antibiotic and antimycotic solutions (all purchased from Sigma) and incubated at 310.15 K in the humidified 5 % CO2 atmosphere.
HDFa cells were plated at 6 × 10^3 cells per well in a 96-well tissue culture plate and incubated overnight at 310.15 K to allow the attachment. The growth medium was substituted with the medium supplemented with tested complex compounds. After 24- or 48-h incubation, the cell viability was assessed using the MTT solution (3-(4,5-dimethylthiazol-2-yl)-2,5-diphenyltetrazolium bromide [Sigma]) at a concentration of 1 mg/mL prepared in the RPMI-1640 medium (Sigma). After 2-h incubation at 310.15 K, the amount of purple formazan product, dissolved in dimethylsulfoxide (DMSO) (Sigma), was quantified by measuring the absorbance at 550 nm.

[2] = tested on: Human Dermal Fibroblasts adult (HDFa) cell line; assay: Cytoprotective activity against H2O2 oxidative damage (MTT)
Description: The Human Dermal Fibroblasts adult (HDFa) cell line (Cascade Biologics) was used in all experiments. Unless otherwise specified, cells were grown in the Dulbecco’s modified Eagle’s medium (DMEM) supplemented with 10 % fetal bovine serum (FBS) and 1× antibiotic and antimycotic solutions (all purchased from Sigma) and incubated at 310.15 K in the humidified 5 % CO2 atmosphere. Cells were plated at 2 × 10^3 cells per well of 96-well tissue culture plate. After an overnight incubation, cells were washed with DMEM without FBS and next treated with 1 mM hydrogen peroxide (H2O2) (Sigma) together with different concentrations of tested complex compounds or with 1 mM H2O2 alone to induce the oxidative damage to cells resulting in the necrotic death. Mixtures were prepared in the growth medium (DMEM) without FBS. Cells treated with the growth medium only were used as a control of normal viability. After 1-h incubation at 310.15 K, the medium was removed and cells were washed with the growth medium containing 10 % FBS to stop the H2O2 activity. Next, either the cell viability was assessed using the MTT solution (see previous paragraph) or additional incubation of cells in DMEM containing 10 % FBS for another 48 h was performed and then cells were tested for the viability (the MTT assay). The cytoprotective activity of complex compounds against the oxidative damage was calculated relatively to untreated control cells, not exposed to H2O2.

[3] = tested on: Bacillus subtilis; assay: Broth dilution test (MIC, MBC); settings: B. subtilis, broth dilution 1–2048 μg/mL
Description: (§1) The antimicrobial activity of complex compounds was assessed against Bacillus subtilis, Escherichia coli, Enterococcus faecalis, Pseudomonas aeruginosa, Staphylococcus aureus, Staphylococcus epidermidis (all strains were from the collection of the Department of Molecular Biology, University of Gdańsk). All bacteria were cultured in the Luria-Bertani (LB) broth at 310.15 K in the air with shaking. LB agar plates were prepared by the supplementation of LB broth with the 1.5 % bacteriological agar. Stock solutions of complex compounds were freshly prepared in the LB broth at the concentration of 25 mg/mL. The antimicrobial activity was assessed with the broth dilution method. The LB broth supplemented with the twofold diluted amount of tested compounds (dilution range 1–2048 μg/mL) was inoculated with 10^6 cfu of bacteria cells per well of 96-well plate. Cultures were incubated at 310.15 K with shaking for 18–20 h in the air, and the bacterial growth was estimated by measuring the optical density at 600 nm with the LB broth as a background control. A minimum inhibitory concentration (MIC) was defined as the lowest concentration of the tested compound (in μg/mL) at which there was no visible growth of bacteria compared to the growth observed for the inoculated LB broth without any supplementation. […] The concentration (in μg/mL) at which no colonies were observed was defined as MBC.

[4] = tested on: Enterococcus faecalis; assay: Broth dilution test (MIC, MBC); settings: E. faecalis; for MIC: broth dilution 1–2048 μg/mL
Description: as §1

[5] = tested on: Escherichia coli; assay: Broth dilution test (MIC, MBC); settings: E. coli; for MIC: broth dilution 1–2048 μg/mL
Description: as §1

[6] = tested on: Pseudomonas aeruginosa; assay: Broth dilution test (MIC, MBC); settings: P. aeruginosa, broth dilution 1–2048 μg/mL
Description: as §1

[7] = tested on: Staphylococcus aureus; assay: Broth dilution test (MIC, MBC); settings: S. aureus; for MIC: broth dilution 1–2048 μg/mL
Description: as §1

[8] = tested on: Staphylococcus epidermidis; assay: Broth dilution test (MIC, MBC); settings: S. epidermidis; for MIC: broth dilution 1–2048 μg/mL
Description: as §1

[9] = tested on: Bacillus subtilis; assay: Disc diffusion test; settings: B. subtilis
Description: The antimicrobial activity of complex compounds was assessed against Bacillus subtilis, Escherichia coli, Enterococcus faecalis, Pseudomonas aeruginosa, Staphylococcus aureus, Staphylococcus epidermidis (all strains were from the collection of the Department of Molecular Biology, University of Gdańsk). All bacteria were cultured in the Luria-Bertani (LB) broth at 310.15 K in the air with shaking. LB agar plates were prepared by the supplementation of LB broth with the 1.5 % bacteriological agar. Stock solutions of complex compounds were freshly prepared in the LB broth at the concentration of 25 mg/mL. Aliquots of 0.05 mL of bacterial culture at the optical density at 600 nm of 0.1 (inoculum 5 × 10^6 cells per plate) were spread on LB agar plates. Sterile filter paper discs (of 6 mm diameter) were impregnated with solutions of complex compounds prepared in the deionized water at the following amounts: 0.1, 0.2, 0.5 and 1.0 mg per disc and placed on agar plates. After an overnight incubation at 310.15 K, zones of bacterial growth inhibition were measured. Neomycin at the amount of 0.1 mg/disc was used as a control.

[10] = 1 mM H2O2 with complex 1 h, then additional 48-h incubation in growth medium
[11] = 1 mM H2O2 with complex, 1-h exposure

SMILES | viability of the cells ([1]; 24 h) | viability of the cells ([1]; 48 h) | cytotoxic effect ([1]; 24 h) | LC50 ([1]; 24-h exposure time) | CC50 ([1]; 48-h exposure time) [µM] | cytoprotective activity against oxidative damage [2, 10] | cytoprotective activity against oxidative damage [2, 11] | MIC [3] [µg/mL] | MIC [4] [µg/mL] | MIC [5] [µg/mL] | MIC [6] [µg/mL] | MIC [7] [µg/mL] | MBC [8] [µg/mL] | bacteriostatic or bactericidal activity [8] | MIC [8] [µg/mL] | Zone of growth inhibition ([9]; 500 μg/disc) [mm] | Zone of growth inhibition ([9]; 1000 μg/disc) [mm] | MBC [7] [µg/mL] | bacteriostatic or bactericidal activity [7] | also measured
O.O.O.O.O.O.O.O.O.O=C([O-])COCC(=O)[O-].O=C([O-])COCC(=O)[O-].[Ni+2].[Ni+2] [Ni(ODA), [Ni(ODA)(H2O)3]·1.5H2O] | no less than 95% | ~75% | no significant cytotoxic effects | Immeasurable | 1310 | no influence on the viability of cells | no influence on the viability of cells | 512 | 1024 | 1024 | 1024 | 1024 | 2048 | bactericidal activity | 512 | 8 | 8 | – | – | –
O.O.O=C([O-])COCC(=O)[O-].[O]=[V+2] [VO(ODA), [VO(ODA)(H2O)2]] | – | – | exhibits the cytotoxic effect | – | 87.5 | induces the cell death | to some extent, exhibits the cytoprotective activity | 2048 | 1024 | 2048 | 1024 | 1024 | 2048 | bactericidal activity | 2048 | – | 7 | 2048 | bactericidal activity | CC50 ([1]; 24-h exposure time): 296 µM; MBC [4]: 1024 µg/mL; bacteriostatic or bactericidal activity [4]: bactericidal activity
O.O.O.O=C(O)COCC(=O)O.[Co] [Co(ODA), [Co(ODA)(H2O)2]·H2O] | no less than 95% | about 90% | no significant cytotoxic effects | Immeasurable | – | grow and proliferate at similar levels to untreated control cells | highest dose- and time-dependent protective effect | 256 | 256 | 512 | 256 | 256 | 2048 | bactericidal activity | 256 | 9 | 11 | 512 | bactericidal activity | LC25 [1]: Immeasurable; LC75 [1]: Immeasurable; LC50 ([1]; 48-h exposure time): Immeasurable; viability of cells ([2]; 1 mM H2O2 together with 500 μM complex, 1 h): ca. 100%; MBC [5]: 1024 µg/mL; bacteriostatic or bactericidal activity [5]: bactericidal activity
